Assay results: US7569562B2, “N-substituted heterocyclic sulfonamides” (Elan Pharmaceuticals, Inc., priority 2005, dated 2009)

Test system: gamma secretase cleavage of NotchΔE (ZEDN1)
Assay: Notch Signaling Assay for Selective Inhibitors of Gamma Secretase (reporter gene based)
Format: cell-based
Conditions: Rattus norvegicus; assay not given; it follows the Notch signaling (4xwtCBF1 Luciferase reporter) method
Description: Notch Signaling Assay for Selective Inhibitors of Gamma Secretase.
Due to the importance of Notch signaling in cell fate determination, and tissue differentiation during both development and in the adult, inhibition of Notch signaling by gamma secretase inhibitors is postulated to be a limiting factor in their therapeutic utility. In order to identify selective gamma secretase inhibitors, we have employed a reporter gene based Notch signaling assay using a constitutively active rat Notch1 construct (ZEDN1) provided by Dr Gerry Weinmaster, who is at the University of California at Los Angeles (UCLA) as described in Shawber, C., D. Nofziger, J. J. Hsieh, C. Lindsell, O. Bogler, D. Hayward and G. Weinmaster (1996). “Notch signaling inhibits muscle cell differentiation through a CBF1-independent pathway.” Development 122(12): 3765-73 in combination with the CBF1 repressible Luciferase reporter gene 4xwtCBF1Luc (Hsieh, J. J., T. Henkel, P. Salmon, E. Robey, M. G. Peterson and S. D. Hayward (1996). “Truncated mammalian Notch1 activates CBF1/RBPJk-repressed genes by a mechanism resembling that of Epstein-Barr virus EBNA2.” Mol Cell Biol 16(3): 952-9).
When 4xwtCBF1 Luciferase is co-transfected with NotchΔE (ZEDN1), γ-secretase cleavage of NotchΔE releases the Notch intracellular domain (NICD), which translocates to the nucleus and de-represses CBF1 mediated transcriptional repression, leading to transcription of the Luciferase reporter gene. Luciferase activity is easily assayed in cell extracts using commercially available kits. The activity of the reporter gene is directly correlated with gamma secretase cleavage of NotchΔE, and as such, a reduction in Luciferase activity provides a convenient measure of inhibition of gamma secretase cleavage of NotchΔE. A comparison of the IC50 values of compounds for inhibition of Notch signaling versus inhibition of β-amyloid production in 293sw cells is employed to guide in the selection of compounds that have the desired property of potent inhibition of β-amyloid synthesis with minimal inhibition of Notch Signaling.

| Structure (SMILES) | IC50 |
| --- | --- |
| O=C1NCCCC[C@H]1N(Cc1ccc(Br)cc1)S(=O)(=O)c1cccnc1 [Pyridine-3-sulfonic acid (4-bromo-benzyl)-[(R)-2-oxo-azepan-3-yl]-amide] | 0.1 to 1 µM |
| Cn1nnc2cc(CN([C@@H]3CCCCNC3=O)S(=O)(=O)c3ccc(Cl)s3)ccc21 [5-Chloro-thiophene-2-sulfonic acid (1-methyl-1H-benzotriazol-5-ylmethyl)-[(R)-2-oxo-azepan-3-yl]-amide] | 0.1 to 1 µM |
| O=C1NCCCC[C@H]1N(CC=Cc1cccnc1)S(=O)(=O)c1ccc(Cl)nc1 [6-Chloro-pyridine-3-sulfonic acid [(R)-2-oxo-azepan-3-yl]-(3-pyridin-3-yl-allyl)-amide] | 0.001 to 0.1 µM |
| O=C1NCCCC[C@H]1N(Cc1ccc(Br)cc1)S(=O)(=O)c1ccc(Cl)s1 [5-Chloro-thiophene-2-sulfonic acid (4-bromo-benzyl)-[(R)-2-oxo-azepan-3-yl]-amide] | 0.1 to 1 µM |
| CC(=Cc1ccccc1)CN([C@@H]1CCCCNC1=O)S(=O)(=O)c1ccc(Cl)nc1 [6-Chloro-pyridine-3-sulfonic acid (2-methyl-3-phenyl-allyl)-[(R)-2-oxo-azepan-3-yl]-amide] | 0.001 to 0.1 µM |
| Cc1ccc(S(=O)(=O)N(Cc2ccc(Br)cc2)[C@@H]2CCCCNC2=O)s1 [5-Methyl-thiophene-2-sulfonic acid (4-bromo-benzyl)-[(R)-2-oxo-azepan-3-yl]-amide] | > 1 µM |
| Cn1nnc2cc(CN([C@@H]3CCCCNC3=O)S(=O)(=O)c3ccc(Cl)nc3)ccc21 [6-Chloro-pyridine-3-sulfonic acid (1-methyl-1H-benzotriazol-5-ylmethyl)-[(R)-2-oxo-azepan-3-yl]-amide] | 0.001 to 0.1 µM |
| O=C1NCCCC[C@H]1N(CC1CCCCO1)S(=O)(=O)c1ccc(Cl)nc1 (stereo partly drawn) [6-Chloro-pyridine-3-sulfonic acid [(R)-2-oxo-azepan-3-yl]-(tetrahydro-pyran-2-ylmethyl)-amide] | > 1 µM |
